Measured values as given in PMC5220248 (Angewandte Chemie (International ed. in English), 2016).
Residues, ends and D or L forms follow the SMILES beside them.

Tests used:
HIV Rev protein = HIV Rev protein (Human immunodeficiency virus type 1 group M subtype B, UniProt P04618); type: binding
[1] = human, serum

C[C@@H]1NC(=O)[C@H](C)NC(=O)[C@@H]2CCCN2C(=O)[C@H](Cc2ccc(O)cc2)NC(=O)[C@H](CCCNC(=N)N)NC(=O)[C@H](Cc2ccc(O)cc2)NC(=O)[C@H](CO)NC1=O [cRBP, cyclo-YPAASYR] (cyclo(AASYRYP))
IC50 (HIV Rev protein): 0.028 ± 0.005 µM | half-life [1]: ~30 h
